Measurements: article PMC10257182, “Discovery of senolytics using machine learning” (Nature Communications, 2023)
Several values for one entry are separate records, joined by “and”; a condition that tells them apart may be missing. Equal values may be shown once.

Tests used:
Assay type in all cases: cell-based, human
[1] = test system: non-senescent control A549 cells; assay: Nuclei count senolytic assay, TIS model, non-senescent control cells; conditions: Control cells, mean
Summary of the method: (§1)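 Etoposide 100 μM, 48 h, + 3 d standard media → senescent A549; untreated A549 = controls. 24 h post-seeding, cpds 10 nM–10 μM final, 10-pt […], 72 h, n=3. Fix formaldehyde, permeabilise Triton-X100, Hoechst 2 μg/ml, image, count nuclei.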

[2] = test system: senescent A549 cells (etoposide-induced); assay: Nuclei count senolytic assay, therapy-induced senescence (TIS) model, senescent cells; conditions: Senescent cells, mean
Summary of the method: as §1

[3] = test system: senescent IMR90 ER:RAS cells (4-OHT-induced); assay: Nuclei count (Hoechst, high content imaging) senolytic assay, oncogene-induced senescence (OIS) model, senescent cells; conditions: for Mean % Cell Survival: mean n=3 (Fig 3C)
Summary of the method: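 IMR90 ER:RAS (p14), ±4-OHT 100 nM; cpd 10 nM–10 μM, 10-pt […], 72 h, n=3. Fix formaldehyde, Triton X-100, Hoechst 2 μg/ml final. Readout: imaged nuclei count vs untreated; ouabain positive control.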

## Cc1c(NC(=O)OC[C@@H]2COCCN2)cn2ncnc(Nc3ccc4c(cnn4Cc4cccc(F)c4)c3)c12.Cl.Cl [BMS 599626 2HCL, BMS 599626 dihydrochloride]
[1]; log (dose) [M] -5
  Mean % Cell Survival: 104.732%
[1]; log (dose) [M] -5.33
  Mean % Cell Survival: 111.851%
[1]; log (dose) [M] -5.66
  Mean % Cell Survival: 123.214%
[1]; log (dose) [M] -6
  Mean % Cell Survival: 110.134%
[1]; log (dose) [M] -6.33
  Mean % Cell Survival: 107.884%
[1]; log (dose) [M] -6.66
  Mean % Cell Survival: 104.478%
[1]; log (dose) [M] -7
  Mean % Cell Survival: 103.285%
[1]; log (dose) [M] -7.33
  Mean % Cell Survival: 102.917%
[1]; log (dose) [M] -7.66
  Mean % Cell Survival: 99.9891%
[1]; log (dose) [M] -8
  Mean % Cell Survival: 98.951%
[2]; log (dose) [M] -5
  Mean % Cell Survival: 90.7857%
[2]; log (dose) [M] -5.33
  Mean % Cell Survival: 83.9286%
[2]; log (dose) [M] -5.66
  Mean % Cell Survival: 68.2857%
[2]; log (dose) [M] -6
  Mean % Cell Survival: 92.9286%
[2]; log (dose) [M] -6.33
  Mean % Cell Survival: 86.7857%
[2]; log (dose) [M] -6.66
  Mean % Cell Survival: 103.929%
[2]; log (dose) [M] -7
  Mean % Cell Survival: 113.571%
[2]; log (dose) [M] -7.33
  Mean % Cell Survival: 119.214%
[2]; log (dose) [M] -7.66
  Mean % Cell Survival: 109.286%
[2]; log (dose) [M] -8
  Mean % Cell Survival: 117.714%
[3]; Senescent cells, log (dose) [M] -5, individual replicates, SUP FIG 4C
  % Cell Survival: 148.305% and 168.559% and 104.914%
[3]; Senescent cells, log (dose) [M] -5.33, individual replicates, SUP FIG 4C
  % Cell Survival: 96.2712% and 179.476% and 125.714%
[3]; Senescent cells, log (dose) [M] -5.66, individual replicates, SUP FIG 4C
  % Cell Survival: 153.051% and 117.467% and 95.5429%
[3]; Senescent cells, log (dose) [M] -6, individual replicates, SUP FIG 4C
  % Cell Survival: 117.797% and 133.042% and 86.6286%
[3]; Senescent cells, log (dose) [M] -6.33, individual replicates, SUP FIG 4C
  % Cell Survival: 137.458% and 98.5444% and 96.6857%
[3]; Senescent cells, log (dose) [M] -6.66, individual replicates, SUP FIG 4C
  % Cell Survival: 136.441% and 92.5764% and 82.2857%
[3]; Senescent cells, log (dose) [M] -7, individual replicates, SUP FIG 4C
  % Cell Survival: 136.102% and 95.3421% and 94.0571%
[3]; Senescent cells, log (dose) [M] -7.33, individual replicates, SUP FIG 4C
  % Cell Survival: 122.034% and 101.601% and 79.4286%
[3]; Senescent cells, log (dose) [M] -7.66, individual replicates, SUP FIG 4C
  % Cell Survival: 139.831% and 102.475% and 90.8571%
[3]; Senescent cells, log (dose) [M] -8, individual replicates, SUP FIG 4C
  % Cell Survival: 151.017% and 98.69% and 92.6857%
[3]; Senescent, log (dose) [M] -5, 72 h
  Mean % Cell Survival: 140.593%
[3]; Senescent, log (dose) [M] -5.33, 72 h
  Mean % Cell Survival: 133.82%
[3]; Senescent, log (dose) [M] -5.66, 72 h
  Mean % Cell Survival: 122.02%
[3]; Senescent, log (dose) [M] -6, 72 h
  Mean % Cell Survival: 112.489%
[3]; Senescent, log (dose) [M] -6.33, 72 h
  Mean % Cell Survival: 110.896%
[3]; Senescent, log (dose) [M] -6.66, 72 h
  Mean % Cell Survival: 103.768%
[3]; Senescent, log (dose) [M] -7, 72 h
  Mean % Cell Survival: 108.5%
[3]; Senescent, log (dose) [M] -7.33, 72 h
  Mean % Cell Survival: 101.021%
[3]; Senescent, log (dose) [M] -7.66, 72 h
  Mean % Cell Survival: 111.054%
[3]; Senescent, log (dose) [M] -8, 72 h
  Mean % Cell Survival: 114.131%
[3]; Senescent, log (dose) [M] -5
  % Cell Survival: 90.7857%
[3]; Senescent, log (dose) [M] -5.33
  % Cell Survival: 83.9286%
[3]; Senescent, log (dose) [M] -5.66
  % Cell Survival: 68.2857%
[3]; Senescent, log (dose) [M] -6
  % Cell Survival: 92.9286%
[3]; Senescent, log (dose) [M] -6.33
  % Cell Survival: 86.7857%
[3]; Senescent, log (dose) [M] -6.66
  % Cell Survival: 103.929%
[3]; Senescent, log (dose) [M] -7
  % Cell Survival: 113.571%
[3]; Senescent, log (dose) [M] -7.33
  % Cell Survival: 119.214%
[3]; Senescent, log (dose) [M] -7.66
  % Cell Survival: 109.286%
[3]; Senescent, log (dose) [M] -8
  % Cell Survival: 117.714%
